Patent US11932607B1, “4-(2,4,5-tris(4-chlorophenyl)-1H-imidazol-1-yl)benzoic acid as an antimicrobial compound” (KING FAISAL UNIVERSITY, priority 2023, dated 2024)

Legend:
Assay type in all cases: cell-based
Pseudomonas aeruginosa = assay: Agar plate disc-diffusion, antibacterial activity (inhibition zone); conditions: Gram negative, DMSO control zone subtracted
Procedure: (§1) The agar plate disc-diffusion method was applied. […] The discs were then placed onto the surface of agar plates (nutrient agar for bacteria and Sabouraud's dextrose agar for fungi) seeded with the test organism. Each plate contained 15 mL of the agar medium, previously seeded with 0.2 mL of the broth culture of each organism pregrown for 18 hours. The plates were incubated at 37° C. for 48 hours, and 72 hours for fungi. The inhibition zones was measured in mm. Discs impregnated with DMSO were used as a control, and its inhibition zone was subtracted from the tested compound actual inhibition zone.

Escherichia coli = assay: as above; conditions: Gram negative, DMSO control zone subtracted
Procedure: as §1

Bacillus cereus = assay: as above; conditions: Gram positive, DMSO control zone subtracted
Procedure: as §1

Staphylococcus aureus = assay: as above; conditions: Gram positive, DMSO control zone subtracted
Procedure: as §1

Aspergillus flavus = assay: Agar plate disc-diffusion, antifungal activity (inhibition zone); conditions: fungal, DMSO control zone subtracted
Procedure: as §1

[1] = system: Chrysosporium keratinophilum; assay: as above; conditions: fungal, DMSO control zone subtracted
Procedure: as §1

[2] = A = concentration of comp. = 10,000 μL
[3] = B = concentration of comp. = 30,000 μL
[4] = C = concentration of comp. = 50,000 μL

SMILES: O=C(O)c1ccc(-n2c(-c3ccc(Cl)cc3)nc(-c3ccc(Cl)cc3)c2-c2ccc(Cl)cc2)cc1 [V, 4-(2,4,5-tris(4-chlorophenyl)-1H-imidazol-1-yl)benzoic acid]
- inhibition zone, Pseudomonas aeruginosa, A (Pseudomonas aeruginosa; [2]): 24 mm
- inhibition zone, Pseudomonas aeruginosa, B (Pseudomonas aeruginosa; [3]): 27 mm
- inhibition zone, Pseudomonas aeruginosa, C (Pseudomonas aeruginosa; [4]): 32 mm
- inhibition zone, Escherichia coli, A (Escherichia coli; [2]): 25 mm
- inhibition zone, Escherichia coli, B (Escherichia coli; [3]): 28 mm
- inhibition zone, Escherichia coli, C (Escherichia coli; [4]): 39 mm
- inhibition zone, Bacillus Cereus, A (Bacillus cereus; [2]): 24 mm
- inhibition zone, Bacillus Cereus, B (Bacillus cereus; [3]): 27 mm
- inhibition zone, Bacillus Cereus, C (Bacillus cereus; [4]): 35 mm
- inhibition zone, Staphylococcus aureus, A (Staphylococcus aureus; [2]): 15 mm
- inhibition zone, Staphylococcus aureus, B (Staphylococcus aureus; [3]): 22 mm
- inhibition zone, Staphylococcus aureus, C (Staphylococcus aureus; [4]): 26 mm
- inhibition zone, Aspergillus flavus, A (Aspergillus flavus; [2]): 21 mm
- inhibition zone, Aspergillus flavus, B (Aspergillus flavus; [3]): 24 mm
- inhibition zone, Aspergillus flavus, C (Aspergillus flavus; [4]): 35 mm
- inhibition zone, Chrysosporium keratinophilum, A [1, 2]: 25 mm
- inhibition zone, Chrysosporium keratinophilum, B [1, 3]: 28 mm
- inhibition zone, Chrysosporium keratinophilum, C [1, 4]: 48 mm
